Data published in PubChem BioAssay (NCI).
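Following 48 hours of exposure in 96-well plates, responses at five concentrations were used to interpolate endpoints linearly. At the TGI there is no net growth.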

Experiments:
Assay in all cases: growth of human tumour cells (NCI), 48 h
SR leukemia = tested on: SR leukemia
BT-549 breast = tested on: BT-549 breast
NCI-H23 lung = tested on: NCI-H23 lung
DU-145 prostate = tested on: DU-145 prostate
EKVX NSCLC = tested on: EKVX NSCLC
MDA-N = tested on: MDA-N
SK-MEL-28 melanoma = tested on: SK-MEL-28 melanoma
COLO 205 colon = tested on: COLO 205 colon
HL-60(TB) leukemia = tested on: HL-60(TB) leukemia
HOP-92 NSCLC = tested on: HOP-92 NSCLC
HOP-62 NSCLC = tested on: HOP-62 NSCLC
SK-MEL-5 melanoma = tested on: SK-MEL-5 melanoma
SK-MEL-2 melanoma = tested on: SK-MEL-2 melanoma
MALME-3M melanoma = tested on: MALME-3M melanoma
IGROV1 ovarian = tested on: IGROV1 ovarian
M14 melanoma = tested on: M14 melanoma
UO-31 renal = tested on: UO-31 renal
UACC-62 melanoma = tested on: UACC-62 melanoma
NCI-H522 lung = tested on: NCI-H522 lung
SF-268 CNS = tested on: SF-268 CNS
OVCAR-5 ovarian = tested on: OVCAR-5 ovarian
SK-OV-3 ovarian = tested on: SK-OV-3 ovarian
MOLT-4 leukemia = tested on: MOLT-4 leukemia
MCF7 breast = tested on: MCF7 breast
UACC-257 melanoma = tested on: UACC-257 melanoma
KM12 colon = tested on: KM12 colon
CAKI-1 renal = tested on: CAKI-1 renal
NCI/ADR-RES ovarian = tested on: NCI/ADR-RES ovarian
RXF 393 renal = tested on: RXF 393 renal
U251 CNS = tested on: U251 CNS
SF-295 CNS = tested on: SF-295 CNS
TK-10 renal = tested on: TK-10 renal
MDA-MB-435 = tested on: MDA-MB-435
HCT-116 colon = tested on: HCT-116 colon
OVCAR-4 ovarian = tested on: OVCAR-4 ovarian
SN12C renal = tested on: SN12C renal
LOX IMVI melanoma = tested on: LOX IMVI melanoma
A498 renal = tested on: A498 renal
HT29 colon = tested on: HT29 colon
SW-620 colon = tested on: SW-620 colon
T-47D breast = tested on: T-47D breast
SNB-19 CNS = tested on: SNB-19 CNS
SNB-75 CNS = tested on: SNB-75 CNS
NCI-H226 lung = tested on: NCI-H226 lung
NCI-H460 lung = tested on: NCI-H460 lung
HCC-2998 colon = tested on: HCC-2998 colon
ACHN renal = tested on: ACHN renal
HCT-15 colon = tested on: HCT-15 colon
MDA-MB-231 breast = tested on: MDA-MB-231 breast
OVCAR-3 ovarian = tested on: OVCAR-3 ovarian
SF-539 CNS = tested on: SF-539 CNS
786-0 renal = tested on: 786-0 renal
A549 NSCLC = tested on: A549 NSCLC
OVCAR-8 ovarian = tested on: OVCAR-8 ovarian
PC-3 prostate = tested on: PC-3 prostate
RPMI-8226 leukemia = tested on: RPMI-8226 leukemia
CCRF-CEM leukemia = tested on: CCRF-CEM leukemia
K-562 leukemia = tested on: K-562 leukemia

In the case of CC1(C)[C@H](O)CC[C@]2(C)C3=CC[C@@]4(C)[C@@H]5C[C@](C)(CO)CC[C@]5(C)CC[C@]4(C)C3=CC[C@@H]12, the TGI (SR leukemia) is reported as 4.72 µM, the TGI (BT-549 breast) is reported as over 100 µM and the TGI (NCI-H23 lung) is reported as over 100 µM. The TGI (DU-145 prostate) was over 100 µM, the TGI (EKVX NSCLC) was over 100 µM and the TGI (MDA-N) was over 100 µM. The TGI (SK-MEL-28 melanoma) was over 100 µM, the TGI (COLO 205 colon) was over 100 µM and the TGI (HL-60(TB) leukemia) was over 100 µM. It also gave a TGI (HOP-92 NSCLC) of over 100 µM, a TGI (HOP-62 NSCLC) of over 100 µM and a TGI (SK-MEL-5 melanoma) of over 100 µM. It also gave a TGI (SK-MEL-2 melanoma) of over 100 µM, a TGI (MALME-3M melanoma) of over 100 µM and a TGI (IGROV1 ovarian) of over 100 µM. The TGI (M14 melanoma) was over 100 µM, the TGI (UO-31 renal) was 3.62 µM and the TGI (UACC-62 melanoma) was over 100 µM. For the same compound, the TGI (NCI-H522 lung) was over 100 µM, the TGI (SF-268 CNS) was over 100 µM and the TGI (OVCAR-5 ovarian) was over 100 µM. The TGI (SK-OV-3 ovarian) was over 100 µM, the TGI (MOLT-4 leukemia) was over 100 µM and the TGI (MCF7 breast) was over 100 µM. It also gave a TGI (UACC-257 melanoma) of over 100 µM.

Cc1sc(N=Nc2c(O)[nH]c3ccccc23)nc1-c1ccccc1 was tested, and the TGI (KM12 colon) was 43.7 µM, the TGI (BT-549 breast) was 41.5 µM and the TGI (NCI-H23 lung) was 34.6 µM. For the same compound, the TGI (CAKI-1 renal) was 32.8 µM, the TGI (DU-145 prostate) was 24.8 µM and the TGI (NCI/ADR-RES ovarian) was 44.7 µM. The TGI (RXF 393 renal) was 34.9 µM, the TGI (EKVX NSCLC) was 31.6 µM and the TGI (MDA-N) was 76.4 µM. For the same compound, the TGI (U251 CNS) was 34.3 µM, the TGI (SF-295 CNS) was 29.1 µM and the TGI (SK-MEL-28 melanoma) was 79.8 µM. The TGI (TK-10 renal) was 59.2 µM, the TGI (COLO 205 colon) was 46.2 µM and the TGI (HL-60(TB) leukemia) was 25 µM. The TGI (HOP-92 NSCLC) was 45.2 µM, the TGI (MDA-MB-435) was 66.8 µM and the TGI (HCT-116 colon) was 35.1 µM. It also gave a TGI (HOP-62 NSCLC) of 33.1 µM, a TGI (OVCAR-4 ovarian) of 42.3 µM and a TGI (SK-MEL-5 melanoma) of 33.9 µM. The TGI (SN12C renal) was 34.9 µM, the TGI (LOX IMVI melanoma) was 36 µM and the TGI (SK-MEL-2 melanoma) was 49.5 µM. For the same compound, the TGI (A498 renal) was 32.3 µM, the TGI (HT29 colon) was 54.5 µM and the TGI (SW-620 colon) was 71.4 µM. The TGI (IGROV1 ovarian) was 27.1 µM, the TGI (T-47D breast) was 33.1 µM and the TGI (M14 melanoma) was 65.2 µM. For the same compound, the TGI (SNB-19 CNS) was 37.3 µM, the TGI (UO-31 renal) was 29.9 µM and the TGI (SNB-75 CNS) was 47 µM. For the same compound, the TGI (NCI-H226 lung) was over 100 µM, the TGI (NCI-H460 lung) was 42.2 µM and the TGI (UACC-62 melanoma) was 34.3 µM. It also gave a TGI (HCC-2998 colon) of 51.1 µM, a TGI (ACHN renal) of 31.1 µM and a TGI (SF-268 CNS) of 38.5 µM. For the same compound, the TGI (HCT-15 colon) was 27.9 µM, the TGI (OVCAR-5 ovarian) was 49.3 µM and the TGI (MDA-MB-231 breast) was 33.3 µM. It also gave a TGI (OVCAR-3 ovarian) of 27.2 µM, a TGI (SF-539 CNS) of 37.5 µM and a TGI (786-0 renal) of 36.6 µM. It also gave a TGI (SK-OV-3 ovarian) of 33.6 µM, a TGI (MOLT-4 leukemia) of 65.4 µM and a TGI (A549 NSCLC) of 32.6 µM. The TGI (OVCAR-8 ovarian) was 40.2 µM, the TGI (MCF7 breast) was 45.1 µM and the TGI (UACC-257 melanoma) was 47.8 µM.

In the case of COC(=O)[C@]1(c2cc3ccccc3n2S(=O)(=O)c2ccccc2)CC2CCC1NC2 (some centres not stated), the TGI (SR leukemia) is reported as 19.2 µM, the TGI (KM12 colon) is reported as 28.3 µM and the TGI (BT-549 breast) is reported as 32.9 µM. For the same compound, the TGI (NCI-H23 lung) was 40.1 µM, the TGI (CAKI-1 renal) was 29.4 µM and the TGI (DU-145 prostate) was 30.4 µM. The TGI (NCI/ADR-RES ovarian) was 44.6 µM, the TGI (RXF 393 renal) was 25.7 µM and the TGI (EKVX NSCLC) was 30.1 µM. The TGI (MDA-N) was 27.8 µM, the TGI (U251 CNS) was 26.4 µM and the TGI (SF-295 CNS) was 31.2 µM. For the same compound, the TGI (SK-MEL-28 melanoma) was 32 µM, the TGI (TK-10 renal) was over 100 µM and the TGI (COLO 205 colon) was 29.7 µM. The TGI (HL-60(TB) leukemia) was 16.9 µM, the TGI (PC-3 prostate) was 24.5 µM and the TGI (HOP-92 NSCLC) was 24.4 µM. For the same compound, the TGI (MDA-MB-435) was 27.4 µM, the TGI (HCT-116 colon) was 26.6 µM and the TGI (HOP-62 NSCLC) was 34 µM. The TGI (OVCAR-4 ovarian) was 48.3 µM, the TGI (SK-MEL-5 melanoma) was 26.4 µM and the TGI (SN12C renal) was 29.4 µM. The TGI (LOX IMVI melanoma) was 36.4 µM, the TGI (SK-MEL-2 melanoma) was 31.7 µM and the TGI (HT29 colon) was 25.7 µM. For the same compound, the TGI (MALME-3M melanoma) was 30.5 µM, the TGI (SW-620 colon) was 31.3 µM and the TGI (IGROV1 ovarian) was 33.7 µM. For the same compound, the TGI (T-47D breast) was 27.2 µM, the TGI (M14 melanoma) was 27.2 µM and the TGI (SNB-19 CNS) was 28 µM. For the same compound, the TGI (UO-31 renal) was 22.3 µM, the TGI (SNB-75 CNS) was 30.5 µM and the TGI (NCI-H226 lung) was 33.2 µM. It also gave a TGI (NCI-H460 lung) of 26.9 µM, a TGI (UACC-62 melanoma) of 29.5 µM and a TGI (NCI-H522 lung) of 30.6 µM. For the same compound, the TGI (RPMI-8226 leukemia) was 23.1 µM, the TGI (HCC-2998 colon) was 21.6 µM and the TGI (ACHN renal) was 51.3 µM. The TGI (SF-268 CNS) was 40 µM, the TGI (HCT-15 colon) was 40.5 µM and the TGI (OVCAR-5 ovarian) was 29.9 µM. For the same compound, the TGI (MDA-MB-231 breast) was 27.1 µM, the TGI (OVCAR-3 ovarian) was 33.1 µM and the TGI (CCRF-CEM leukemia) was 56.8 µM. For the same compound, the TGI (SF-539 CNS) was 32.2 µM, the TGI (786-0 renal) was 27.3 µM and the TGI (SK-OV-3 ovarian) was 32.8 µM. It also gave a TGI (A549 NSCLC) of 25.2 µM, a TGI (OVCAR-8 ovarian) of 32.3 µM and a TGI (MCF7 breast) of 28 µM. The TGI (UACC-257 melanoma) was 32 µM and the TGI (K-562 leukemia) was 24.4 µM.
